Experimental data published in article PMC12116762, “Topobexin targets the Topoisomerase II ATPase domain for beta isoform-selective inhibition and anthracycline cardioprotection” (Nature Communications, 2025).
“And” between values parts separate entries of the source, which are not always exact repeats. Equal values may be shown once. Read-outs that look alike come from different tables or passages of the source.

What was measured:
[1] = system: neonatal rat ventricular cardiomyocytes (NVCM); test: Protection against DAU-induced cytotoxicity (LDH release) in NVCM; format: cell-based; set-up: key to Suppl.Fig.3 DAU-induced cytotoxicity (LDH release) in NVCM, mean of independent replicates / LDH release (DAU-induced cytotoxicity), mean of independent replicates: % of total LDH activity; conditions: for minimal effective concentration: protection against DAU 1.2 µM, n=4, read-out: LEC = lowest effective concentration; for LDH release: independent replicates
Procedure, shortened: (§1)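 Primary neonatal Wistar rat cardiomyocytes in serum- and pyruvate-free DMEM/F12 were pretreated with compound 3 h, then co-incubated 3 h with DAU (1.2 µM), or without DAU for inherent toxicity, then given a 48 h drug-free follow-up. Medium LDH activity (NAD+ reduction at 340 nm) expressed as % of total LDH.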

[2] = system: neonatal rat ventricular cardiomyocytes (NVCM); test: Inherent toxicity (LDH release) in NVCM; format: cell-based; set-up: key to LDH release (inherent toxicity), mean of independent replicates: % of total LDH activity; conditions: NVCM; for LTC = lowest toxic concentration: compound alone, n=4; for LDH release (inherent toxicity), mean of independent replicates: Suppl.Fig.4
Procedure, shortened: as §1

γH2AX [3] = test: γH2AX levels in HL-60 cells (Western blotting); format: cell-based, human; conditions: DAU 1.2 µM alone (mean = 100); Suppl.Fig.8d
γH2AX [4] = test: Acute DAU-induced DNA damage (γH2AX) in rabbit LV myocardium; format: in vivo; set-up: γH2AX in LV myocardium: scale not given here; conditions: DAU 3 mg/kg alone, 1.5 h; individual animals
Experimental: For the determination of γH2aX protein in in vivo experiments, pulverized rabbit LV samples were homogenized in commercial 1× SDS Lysis Buffer (PhosphoSolutions) with phosphatase and protease inhibitor solutions (Thermo Fisher Scientific and Roche, respectively) and boiled at 95 °C for 10 min. Protein concentrations were assessed by the BCA Protein Assay Kit (Sigma-Aldrich), and 85 μg of protein were loaded into Mini-PROTEAN 12% TGX Precast Stain-free Gel (Bio-Rad). After separation, the proteins were transferred onto a nitrocellulose membrane using a Trans-Blot Turbo System (all Bio-Rad). Mouse monoclonal anti-γH2AX (1:800, ab26350, Abcam) was used as the primary antibody, and horseradish peroxidase-conjugated goat anti-mouse immunoglobulin (1:1000, P044701, DAKO) was used as the secondary antibody. The BM Chemiluminescence Blotting Substrate (Roche) and Fusion Solo S coupled with CCD camera (Vilber) were used for signal detection.
Rabbits (n = 24) were divided equally into four groups (n = 6 in each) receiving a single dose as follows: DAU (3 mg/kg, i.v. bolus), saline (1 ml/kg, i.v., the control group), topobexin (9) alone (10 mg/kg, prepared and administered as describe above in the pharmacokinetic study, i.e., in 20 min i.v. infusion) and the combination group (topobexin (9) 10 mg/kg via 20 min i.v. infusion followed by DAU 3 mg/kg as i.v. bolus into the contralateral ear 40 min after the end of topobexin (9) infusion). Based on preliminary data, the experiment was completed 90 min after administration of DAU or saline. The heart was excised and γH2AX as a marker of DNA damage was determined in myocardial homogenates using Western blotting as described above.

caspase 9 = test: Caspase 9 activity in NVCM (Caspase-Glo); format: cell-based, rat; conditions: DAU 1.2 μM alone
Experimental: Caspase activity was assessed on NVCM cells using luciferase-based kits for caspase 3/7, 8 and 9 (Caspase-Glo® 3/7, 8 and 9 assay systems; Promega) according to the manufacturer’s instructions on 384-well plates (Greiner Bio-One). Luminescence signal was measured using Tecan M200 multifunctional plate-reader. All measured groups were corrected for total protein concentration (BCA assay) and were expressed as fold change of the signal over corresponding untreated control group. Each presented data point was obtained from distinct sample. Statistical significance was determined using ratio paired t-test, two-tailed.

Structure (SMILES): CCCc1cc(=O)oc2c(C(=O)N3CCCc4ccccc43)c(OCCO)ccc12 [5c]
- concentration providing significant cardioprotection ([1]; NVCM, DAU 1.2 µM): ≥ 0.1 µM
- minimal effective concentration ([1]; Rattus norvegicus, Cardiomyocyte, NVCM): 0.1 µM
- LDH release, mean ([1]; compound 0.01 µM + DAU 1.2 µM): 43.3429 % of total LDH
- Suppl.Fig.3 DAU-induced cytotoxicity (LDH release) in NVCM, mean of independent replicates ([1]; compound 0.01 µM + DAU 1.2 µM): 43.3429
- LDH release ([1]; compound 0.01 µM + DAU 1.2 µM): 38.8043 % of total LDH and 44.6863 % of total LDH and 52.1182 % of total LDH and 37.7626 % of total LDH
- LDH release, mean ([1]; compound 0.1 µM + DAU 1.2 µM): 37.9008 % of total LDH
- Suppl.Fig.3 DAU-induced cytotoxicity (LDH release) in NVCM, mean of independent replicates ([1]; compound 0.1 µM + DAU 1.2 µM): 37.9008
- LDH release ([1]; compound 0.1 µM + DAU 1.2 µM): 31.4509 % of total LDH and 46.2465 % of total LDH and 39.969 % of total LDH and 33.9368 % of total LDH
- LDH release, mean ([1]; compound 1 µM + DAU 1.2 µM): 32.4872 % of total LDH
- Suppl.Fig.3 DAU-induced cytotoxicity (LDH release) in NVCM, mean of independent replicates ([1]; compound 1 µM + DAU 1.2 µM): 32.4872
- LDH release ([1]; compound 1 µM + DAU 1.2 µM): 27.3874 % of total LDH and 32.0086 % of total LDH and 42.6349 % of total LDH and 27.9179 % of total LDH
- LDH release, mean ([1]; compound 10 µM + DAU 1.2 µM): 26.8851 % of total LDH
- Suppl.Fig.3 DAU-induced cytotoxicity (LDH release) in NVCM, mean of independent replicates ([1]; compound 10 µM + DAU 1.2 µM): 26.8851
- LDH release ([1]; compound 10 µM + DAU 1.2 µM): 22.9974 % of total LDH and 24.3605 % of total LDH and 29.85 % of total LDH and 30.3325 % of total LDH
- LDH release, mean ([1]; compound 30 µM + DAU 1.2 µM): 27.5762 % of total LDH
- Suppl.Fig.3 DAU-induced cytotoxicity (LDH release) in NVCM, mean of independent replicates ([1]; compound 30 µM + DAU 1.2 µM): 27.5762
- LDH release ([1]; compound 30 µM + DAU 1.2 µM): 24.4062 % of total LDH and 28.0233 % of total LDH and 28.184 % of total LDH and 29.6914 % of total LDH
- LDH release, mean ([1]; compound 100 µM + DAU 1.2 µM): 31.1384 % of total LDH
- Suppl.Fig.3 DAU-induced cytotoxicity (LDH release) in NVCM, mean of independent replicates ([1]; compound 100 µM + DAU 1.2 µM): 31.1384
- LDH release ([1]; compound 100 µM + DAU 1.2 µM): 22.9096 % of total LDH and 39.1124 % of total LDH and 31.4385 % of total LDH and 31.093 % of total LDH
- LTC = lowest toxic concentration [2]: 100 µM
- LDH release (inherent toxicity), mean of independent replicates ([2]; compound alone 0.01 µM): 14.5952
- LDH release (inherent toxicity), mean of independent replicates ([2]; compound alone 0.1 µM): 14.7832
- LDH release (inherent toxicity), mean of independent replicates ([2]; compound alone 1 µM): 14.0641
- LDH release (inherent toxicity), mean of independent replicates ([2]; compound alone 10 µM): 18.571
- LDH release (inherent toxicity), mean of independent replicates ([2]; compound alone 30 µM): 18.0914
- LDH release (inherent toxicity), mean of independent replicates ([2]; compound alone 100 µM): 21.5856

Structure (SMILES): CCCc1cc(=O)oc2c(C(=O)N3CCCc4ccccc43)c(OC)cc(OC)c12 [BNS-22]
- minimal effective concentration ([1]; NVCM): 1 µM
- LDH release, mean ([1]; compound 0.01 µM + DAU 1.2 µM): 38.9374 % of total LDH
- Suppl.Fig.3 DAU-induced cytotoxicity (LDH release) in NVCM, mean of independent replicates ([1]; compound 0.01 µM + DAU 1.2 µM): 38.9374
- LDH release ([1]; compound 0.01 µM + DAU 1.2 µM): 36.8796 % of total LDH and 42.975 % of total LDH and 39.3894 % of total LDH and 36.5057 % of total LDH
- LDH release, mean ([1]; compound 0.1 µM + DAU 1.2 µM): 33.1153 % of total LDH
- Suppl.Fig.3 DAU-induced cytotoxicity (LDH release) in NVCM, mean of independent replicates ([1]; compound 0.1 µM + DAU 1.2 µM): 33.1153
- LDH release ([1]; compound 0.1 µM + DAU 1.2 µM): 30.1987 % of total LDH and 38.5314 % of total LDH and 34.1236 % of total LDH and 29.6074 % of total LDH
- LDH release, mean ([1]; compound 1 µM + DAU 1.2 µM): 28.1702 % of total LDH
- Suppl.Fig.3 DAU-induced cytotoxicity (LDH release) in NVCM, mean of independent replicates ([1]; compound 1 µM + DAU 1.2 µM): 28.1702
- LDH release ([1]; compound 1 µM + DAU 1.2 µM): 24.6443 % of total LDH and 29.0885 % of total LDH and 32.0729 % of total LDH and 26.875 % of total LDH
- LDH release, mean ([1]; compound 3 µM + DAU 1.2 µM): 24.9748 % of total LDH
- Suppl.Fig.3 DAU-induced cytotoxicity (LDH release) in NVCM, mean of independent replicates ([1]; compound 3 µM + DAU 1.2 µM): 24.9748
- LDH release ([1]; compound 3 µM + DAU 1.2 µM): 26.7887 % of total LDH and 18.8271 % of total LDH and 27.1872 % of total LDH and 27.096 % of total LDH
- LDH release, mean ([1]; compound 10 µM + DAU 1.2 µM): 23.9768 % of total LDH
- Suppl.Fig.3 DAU-induced cytotoxicity (LDH release) in NVCM, mean of independent replicates ([1]; compound 10 µM + DAU 1.2 µM): 23.9768
- LDH release ([1]; compound 10 µM + DAU 1.2 µM): 25.2929 % of total LDH and 19.0756 % of total LDH and 25.4172 % of total LDH and 26.1213 % of total LDH
- LTC = lowest toxic concentration [2]: > 10 µM
- LDH release (inherent toxicity), mean of independent replicates ([2]; compound alone 0.01 µM): 12.6739
- LDH release (inherent toxicity), mean of independent replicates ([2]; compound alone 0.1 µM): 12.9938
- LDH release (inherent toxicity), mean of independent replicates ([2]; compound alone 1 µM): 12.9269
- LDH release (inherent toxicity), mean of independent replicates ([2]; compound alone 3 µM): 14.5033
- LDH release (inherent toxicity), mean of independent replicates ([2]; compound alone 10 µM): 16.9772

Structure (SMILES): COc1cccc2c1C(=O)c1c(O)c3c(c(O)c1C2=O)C[C@@](O)(C(C)=O)C[C@@H]3O[C@H]1C[C@H](N)[C@H](O)[C@H](C)O1 [DAU, daunorubicin, reference compound]
- γH2AX level, mean of independent replicates (γH2AX [3]): 100
- γH2AX in LV myocardium (γH2AX [4]): 10.11 and 5.83 and 6.97 and 6.98 and 3.35 and 7.46
- LDH release, mean ([1]; DAU 1.2 µM alone, 48 h): 50.9581 % of total LDH and 40.9598 % of total LDH and 38.3367 % of total LDH
- LDH release ([1]; DAU 1.2 µM alone, 48 h): 42.9177 % of total LDH and 49.9715 % of total LDH and 51.9004 % of total LDH and 59.0427 % of total LDH and 48.4333 % of total LDH and 43.9079 % of total LDH and 36.1066 % of total LDH and 35.3914 % of total LDH and 37.5065 % of total LDH and 36.8503 % of total LDH and 39.0464 % of total LDH and 39.9436 % of total LDH
- LDH release (DAU-induced cytotoxicity), mean of independent replicates ([1]; DAU 1.2 µM alone, NVCM, Suppl.Fig.6b): 49.0741 and 44.6225 and 40.9598 and 43.4866
- LDH release (DAU-induced cytotoxicity), mean of independent replicates ([1]; DAU 1.2 µM alone, NVCM, Suppl.Fig.8a): 50.2853
- Suppl.Fig.3 DAU-induced cytotoxicity (LDH release) in NVCM, mean of independent replicates ([1]; DAU 1.2 µM alone, one value per experiment set (compound block)): 52.5555 and 50.9581 and 43.2031 and 52.6717 and 39.8455 and 40.6658 and 38.8384 and 49.4177 and 40.4688 and 38.0883 and 38.3367 and 37.1578 and 50.485 and 47.9698 and 52.8733 and 52.0892 and 42.039 and 50.4287
- Csp9 activity, mean (caspase 9): 2.579 fold change
- Csp9 activity (caspase 9; independent replicates): 1.742 fold change and 1.782 fold change and 3.523 fold change and 1.858 fold change and 4.0027 fold change and 2.565 fold change

Structure (SMILES): C[C@@H](CN1CC(=O)NC(=O)C1)N1CC(=O)NC(=O)C1 [dexrazoxane]
- concentration needed for similar extent of protection, relative to topobexin (9) ([1]; NVCM): at least 10 ×
- LDH release (protection against DAU), mean of independent replicates ([1]; compound 0.1 µM + DAU 1.2 µM, NVCM, Suppl.Fig.8a): 48.0486
- LDH release (protection against DAU), mean of independent replicates ([1]; compound 1 µM + DAU 1.2 µM, NVCM, Suppl.Fig.8a): 43.2962
- LDH release (protection against DAU), mean of independent replicates ([1]; compound 10 µM + DAU 1.2 µM, NVCM, Suppl.Fig.8a): 41.8711
- LDH release (protection against DAU), mean of independent replicates ([1]; compound 100 µM + DAU 1.2 µM, NVCM, Suppl.Fig.8a): 36.8821
